# Reference: ChEMBL document CHEMBL1201862, “PubChem BioAssay data set” (2004)
# Active and inactive are the calls of the source.
# Assays:
# [1] = molecular target: T1, Corticotropin-releasing factor receptor 2/Corticotropin-releasing factor-binding protein (Homo sapiens, UniProt P24387+Q13324); experiment: Dose Response confirmation of uHTS hits for small molecule antagonists of the CRF-binding protein and CRF-R2 receptor complex.; format: functional; conditions: read-out: IC50_Mean
# T1 sequence (Q13324 whole entry): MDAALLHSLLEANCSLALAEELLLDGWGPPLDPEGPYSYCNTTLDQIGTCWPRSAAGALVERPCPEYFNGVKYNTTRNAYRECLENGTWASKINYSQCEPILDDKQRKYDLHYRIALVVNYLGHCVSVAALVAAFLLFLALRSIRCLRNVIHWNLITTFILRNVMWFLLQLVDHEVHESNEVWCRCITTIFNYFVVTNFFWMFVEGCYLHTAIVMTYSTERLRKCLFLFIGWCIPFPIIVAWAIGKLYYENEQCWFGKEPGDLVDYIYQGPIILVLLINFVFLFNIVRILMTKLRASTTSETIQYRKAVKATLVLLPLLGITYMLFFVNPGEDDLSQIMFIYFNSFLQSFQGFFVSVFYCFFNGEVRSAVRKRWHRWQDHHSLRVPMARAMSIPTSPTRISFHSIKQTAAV
# T1 sequence (P24387 whole entry): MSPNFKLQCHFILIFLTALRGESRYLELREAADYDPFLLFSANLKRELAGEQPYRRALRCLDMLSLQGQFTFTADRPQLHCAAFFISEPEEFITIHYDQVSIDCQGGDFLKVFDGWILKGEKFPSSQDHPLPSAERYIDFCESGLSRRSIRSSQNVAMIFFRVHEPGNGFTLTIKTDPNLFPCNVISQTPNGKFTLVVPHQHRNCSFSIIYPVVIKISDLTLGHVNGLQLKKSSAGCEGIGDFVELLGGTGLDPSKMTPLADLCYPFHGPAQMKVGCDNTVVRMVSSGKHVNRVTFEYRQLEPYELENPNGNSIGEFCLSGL
# [2] = molecular target: T1, Corticotropin-releasing factor receptor 2/Corticotropin-releasing factor-binding protein; experiment: activators of CRF receptor 2 with binding protein – uHTS hits, confirmation (AID 602473); format: functional; conditions: read-out: EC50_Mean
# [3] = molecular target: T2, Heat shock factor protein 1 (Mus musculus, UniProt P38532); experiment: enhancement of HSF1-driven luciferase signal – cell-based, NIH3T3, luminescence, dose retest, confirmation (AID 435004); format: functional;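 note: stress induced by proteasome inhibitor MG132 added 30 min after compound; luciferase reporter driven by HSF1 response element in NIH3T3 cells; actives raise luminescence as potentiators of the MG132 stress response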
# T2 sequence (P38532 whole entry): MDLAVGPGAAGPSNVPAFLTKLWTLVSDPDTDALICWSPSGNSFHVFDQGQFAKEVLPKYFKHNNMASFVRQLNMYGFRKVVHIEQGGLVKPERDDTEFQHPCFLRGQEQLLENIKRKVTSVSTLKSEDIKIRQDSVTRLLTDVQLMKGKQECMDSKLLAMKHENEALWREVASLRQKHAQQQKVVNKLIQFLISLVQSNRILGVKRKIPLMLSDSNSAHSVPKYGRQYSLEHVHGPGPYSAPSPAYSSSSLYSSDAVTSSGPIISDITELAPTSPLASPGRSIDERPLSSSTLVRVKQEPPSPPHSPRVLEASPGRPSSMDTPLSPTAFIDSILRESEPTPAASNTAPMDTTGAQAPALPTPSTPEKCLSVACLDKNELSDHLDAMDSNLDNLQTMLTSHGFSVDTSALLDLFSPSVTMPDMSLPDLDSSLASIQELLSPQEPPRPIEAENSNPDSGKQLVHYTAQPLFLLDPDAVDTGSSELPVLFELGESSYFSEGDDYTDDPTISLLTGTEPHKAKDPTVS
# [4] = reduction of Shn3 3'UTR-driven luciferase in osteoblasts – cell-based, Clone20 osteoblasts, firefly luciferase, cherry-picked, dose response (AID 624132); format: functional;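 note: firefly luciferase luminescence from reporter carrying the Shn3 3'UTR in osteoblasts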
# [5] = luciferase reporter signal suppression in cells – H4 neuroglioma cells, luminescence, dose response (AID 1990); format: functional, cell-based
# [6] = alpha-synuclein stem-loop luciferase translation blockers – H4 neuroglioma cells, luminescence, confirmation (AID 1988); format: functional, cell-based
# Protein skinhead-1 = molecular target: T3, Protein skinhead-1 (Caenorhabditis elegans, UniProt P34707); format: functional
# T3 sequence (P34707 whole entry): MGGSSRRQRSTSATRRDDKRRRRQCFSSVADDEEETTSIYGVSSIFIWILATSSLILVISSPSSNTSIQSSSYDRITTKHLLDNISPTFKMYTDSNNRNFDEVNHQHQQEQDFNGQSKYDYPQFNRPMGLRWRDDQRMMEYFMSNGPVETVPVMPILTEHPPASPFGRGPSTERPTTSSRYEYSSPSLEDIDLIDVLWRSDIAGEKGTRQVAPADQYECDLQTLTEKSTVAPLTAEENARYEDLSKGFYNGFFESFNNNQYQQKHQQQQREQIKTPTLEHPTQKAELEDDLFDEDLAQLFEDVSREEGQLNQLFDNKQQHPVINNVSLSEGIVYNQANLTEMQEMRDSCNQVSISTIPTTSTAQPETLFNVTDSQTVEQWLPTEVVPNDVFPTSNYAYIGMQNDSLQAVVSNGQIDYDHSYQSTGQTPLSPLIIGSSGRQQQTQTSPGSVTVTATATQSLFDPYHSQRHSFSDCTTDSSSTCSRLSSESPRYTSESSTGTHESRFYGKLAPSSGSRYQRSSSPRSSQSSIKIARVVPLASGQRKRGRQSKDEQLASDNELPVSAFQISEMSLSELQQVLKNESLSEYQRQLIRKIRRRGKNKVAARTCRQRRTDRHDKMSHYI
# [7] = viability of uninfected HEp-2 cells – cell-based, HTS, cytotoxicity control for RSV inhibitor project, dose response (AID 2410); format: functional; conditions: human respiratory syncytial virus
# [8] = molecular target: T4, Calpain-2 catalytic subunit (Sus scrofa, UniProt P43367); experiment: m-calpain protease blockers, concentration series – biochemical, fluorogenic peptide substrate, dose response (AID 1420); format: functional
# T4 sequence (P43367 whole entry): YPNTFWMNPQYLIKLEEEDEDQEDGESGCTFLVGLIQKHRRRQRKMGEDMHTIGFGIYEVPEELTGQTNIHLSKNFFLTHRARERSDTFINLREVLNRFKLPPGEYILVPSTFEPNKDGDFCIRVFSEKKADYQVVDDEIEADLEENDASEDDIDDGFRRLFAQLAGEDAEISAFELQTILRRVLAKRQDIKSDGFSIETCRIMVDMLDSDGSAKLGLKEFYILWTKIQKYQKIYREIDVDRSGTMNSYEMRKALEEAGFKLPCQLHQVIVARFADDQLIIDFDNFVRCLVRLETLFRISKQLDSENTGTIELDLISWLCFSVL
# [9] = Luminescence Cell-Based Dose Response HTS to Identify Inhibitors of 5'UTR Stem-Loop Driven Prion Protein mRNA Translation in H4 Neuroglioblastoma Cells. [Related pubchem assays: 1827 (Project Summary), 1813 (Primary HTS)]; format: functional
compound,measurement,setting,value
COc1cccc(C(=O)OCC(=O)NCCC2=CCCCC2)c1,IC50,[1],> 47.1 µM (inactive)
same,EC50,[2],> 53 µM (inactive)
CC(Oc1ccc(Cl)cc1)C(=O)OCC(=O)Nc1ncc(Cl)cc1Cl (stereo not given),EC50,[3],> 260 µM (inactive)
CCN1CCN(Cc2ccc(NC(=O)c3cc(NC(=O)c4cc5cccc(OC)c5o4)cc(OC)c3)cc2C(F)(F)F)CC1,AC50,[4],10.2 µM (active)
CC1(c2ccc([N+](=O)[O-])cc2)NC(=O)N(CC(=O)c2ccc3c(c2)OCO3)C1=O (stereo not given),EC50,[2],12.1 µM (active)
same,EC50,[3],> 260 µM (inactive)
CCCNC(=O)CCn1nc(-c2ccc(Cl)cc2)c2ccccc2c1=O,EC50,[5],18.5 µM (active)
same,EC50,[6],> 120 µM (not active)
COc1nc(-c2ccccc2)nnc1-c1ccccc1,IC50,Protein skinhead-1,23 µM (active)
CCOc1ccc(S(=O)(=O)N2CN(c3cccc(C(C)=O)c3)c3nc4ccccc4nc32)cc1,IC50,[1],< 0.368 µM (active)
same,EC50,[2],> 53 µM (inactive)
CCOC(=O)CN1CC23C=CC(O2)C(C(=O)NCc2cccs2)C3C1=O (stereo not given),IC50,Protein skinhead-1,> 100 µM (inactive)
O=[N+]([O-])c1cccc2ccc(/C=C/c3ccc(Cl)cc3)nc12,CC50,[7],20 µM (active)
same,IC50,Protein skinhead-1,> 100 µM (inactive)
O=[N+]([O-])c1ccc(NCc2ccc(Cl)cc2)nc1,IC50,[8],12.6 µM (not active)
same,IC50,Protein skinhead-1,32.1 µM (active)
CCCOC(=O)c1cc(O)nc2ccccc12,IC50,Protein skinhead-1,> 100 µM (inactive)
Cc1ccc(OCC(=O)N2N=C(C(F)(F)F)CC2(O)C(C)(C)C)cc1C (stereo not given),EC50,[5],102 µM (active)
same,EC50,[9],21.8 µM (active)
same,EC50,[6],33.1 µM (active)
Cc1cccc(-n2c(SCc3ccc(C#N)cc3)nnc2-c2c[nH]c3ccccc23)c1,EC50,[5],> 120 µM (not active)
same,EC50,[9],> 120 µM (not active)
same,EC50,[6],25.7 µM (active)
Fc1ccccc1/C=C/c1ccc2ccccc2n1,IC50,Protein skinhead-1,19.2 µM (active)
Cn1cc([C@@H]2C[C@H]3CN(Cc4cccc(Cl)c4)C(=O)[C@]34CCCN24)c2ccccc21,IC50,Protein skinhead-1,> 100 µM (inactive)
